Earlier results on seven molecules are cited in PubChem BioAssay AID1259409 (Chemical Carcinogenesis Research Information System (CCRIS), 2018).

SMILES strings stand for the structures.

This data set relates to rodent chemically induced tumor inhibition, incidence and multiplicity. Kind of data set: CCRIS tumor inhibitor studies. As to conditions: for outcome: Carcinogen: 7,12-Dimethylbenz[a]anthracene, Species: Mouse.

In the case of `O=C(CC(=O)c1ccccc1)c1ccccc1`, the “tumour outcome (control, treated, inhibition, significance)” value by setting is: (Carcinogen: 7,12-DIMETHYLBENZ[A]ANTHRACENE, 57-97-6, Dose [Inhibitor]: 0, 1% IN DIET FOR 22 WK BEGINNING 2 WK PRIOR TO CARCINOGEN DOSE (STUDY DURATION: 22 WK), Route [Inhibitor]: ORAL, Species: MOUSE, Strain/Sex: SENCAR/FEMALE, Target Tissue: Type of Lesion: LYMPHATIC SYSTEM: LYMPHOMA OR LEUKEMIA, Dose [Carcinogen]: 1 MG IN 0.1 ML CORN OIL 1/WK FOR 5 WK, Promoter: NONE USED) 45%, 0%, 100%, p<0.05; (Carcinogen: 7,12-DIMETHYLBENZ[A]ANTHRACENE, 57-97-6, Dose [Inhibitor]: 0, 1% IN DIET FOR 22 WK BEGINNING 2 WK PRIOR TO CARCINOGEN DOSE (STUDY DURATION: 22WK), Route [Inhibitor]: ORAL, Species: MOUSE, Strain/Sex: SENCAR/FEMALE, Target Tissue: Type of Lesion: MAMMARY GLAND: TUMOR, Dose [Carcinogen]: 1 MG IN 0.1 ML CORN OIL 1/WK FOR 5 WK, Promoter: NONE USED) 68%, 2%, 97%, p<0.05; (Carcinogen: 7,12-DIMETHYLBENZ[A]ANTHRACENE, 57-97-6, Dose [Inhibitor]: 0, 1% IN DIET FOR 22 WK BEGINNING 2 WK PRIOR TO CARCINOGEN DOSE (STUDY DURATION: 22WK), Route [Inhibitor]: ORAL, Species: MOUSE, Strain/Sex: SENCAR/FEMALE, Target Tissue: Type of Lesion: OVARY:TUMOR, Dose [Carcinogen]: 1 MG IN 0.1 ML CORN OIL 1/WK FOR 5 WK, Promoter: NONE USED) 20%, 0%, 100%, p<0.05. Further, the outcome (57-97-6, Dose [Inhibitor]: 0, 10 umol 3x/wk for 10 wk, Route [Inhibitor]: Dermal, Strain/Sex: CD-1/Female, Target Tissue: Type of Lesion: Skin: tumor, Dose [Carcinogen]: 200 nmol in 200 ul acetone, once, study duration 11 wk, Promoter: Mirex, 2385-85-5) was 37%, 15%, not significant; the outcome (57-97-6, Dose [Inhibitor]: 0, 10 umol 3x/wk for 14 wk, Route [Inhibitor]: Dermal, Strain/Sex: CD-1/Female, Target Tissue: Type of Lesion: Skin: tumor, Dose [Carcinogen]: 200 nmol in 200 ul acetone, once, study duration 15 wk, Promoter: Mirex, 2385-85-5) was 60%, 40%, not significant; the outcome (57-97-6, Dose [Inhibitor]: 0, 10 umol 3x/wk for 18 wk, Route [Inhibitor]: Dermal, Strain/Sex: CD-1/Female, Target Tissue: Type of Lesion: Skin: tumor, Dose [Carcinogen]: 200 nmol in 200 ul acetone, once, study duration 19 wk, Promoter: Mirex, 2385-85-5) is on record as 80%, 70%, not significant; the outcome (57-97-6, Dose [Inhibitor]: 0, 1% in diet for 22 wk beginning 2 wk prior to carcinogen dose (study duration: 22wk), Route [Inhibitor]: Oral, Strain/Sex: Sencar/Female, Target Tissue: Type of Lesion: Mammary Gland: Tumor, Dose [Carcinogen]: 1 mg in 0.1 ml corn oil 1/wk for 5 wk, Promoter: None) is reported as 3%, 0%, 100% at 3 wk; 38%, 0%, 100% at 9 wk; 55%, 0% at 13 wk; 68%, 3%, 96% at 2.
With `COC(=O)[C@H](CCSC)NC(C)=O`, under “Carcinogen: 7,12-DIMETHYLBENZ[A]ANTHRACENE, 57-97-6, Dose [Inhibitor]: 0.06 MMOL/G DIET DAILY FOR 17 WK STARTING 1 WK PRIOR TO CARCINOGEN TREATMENT AND CONTINUING THROUGH THE END OF THE STUDY, Route [Inhibitor]: ORAL, Species: RAT, Strain/Sex: SPRAGUE-DAWLEY/FEMALE, Target Tissue: Type of Lesion: MAMMARY GLAND: TUMOR, Dose [Carcinogen]: 12 MG IN 1 ML OLIVE OIL ONCE, Promoter: NONE USED”, the “tumour outcome (control, treated, inhibition, significance)” value is listed as 59%, 75%, -27%, not calculated.
Take `O=c1cc(-c2ccc(O)c(O)c2)oc2cc(O)cc(O)c12`: the “tumour outcome (control, treated, inhibition, significance)” value runs as follows: (Carcinogen: 7,12-DIMETHYLBENZ[A]ANTHRACENE, 57-97-6, Dose [Inhibitor]: 0, 0.2 ML OF A 1% SOLUTION 1/D FOR 2 WK APPLIED 5 MIN POST EACH CARCINOGEN DOSE THEN 1/D FOR 4 WK DURING PROMOTION STAGE, Route [Inhibitor]: DERMAL, Species: MOUSE, Strain/Sex: SWISS/MALE, Target Tissue: Type of Lesion: SKIN: PAPILLOMA, Dose [Carcinogen]: 0.2 ML OF A 0.24% SOLUTION IN DMSO 1/D FOR 2 WK, Promoter: CROTON OIL, 8001-28-3) 23/23 (100%), 10/24 (42%), 58%, not calculated; (Carcinogen: 7,12-DIMETHYLBENZ[A]ANTHRACENE, 57-97-6, Dose [Inhibitor]: 0, 0.2 ML OF A 1% SOLUTION 1/D FOR 2 WK APPLIED 5 MIN PRIOR TO EACH CARCINOGEN DOSE (STUDY DURATION: 20 WK), Route [Inhibitor]: DERMAL, Species: MOUSE, Strain/Sex: SWISS/MALE, Target Tissue: Type of Lesion: SKIN: PAPILLOMA, Dose [Carcinogen]: 0.2 ML OF A 0.24% SOLUTION IN DMSO 1/D FOR 2 WK, Promoter: CROTON OIL, 8001-28-3) 23/23 (100%), 20/23 (87%), 13%, not calculated.
With `CC1(C)CC[C@]2(C(=O)O)CC[C@]3(C)C(=CC[C@@H]4[C@@]5(C)CC[C@H](O)C(C)(C)[C@@H]5CC[C@]43C)[C@@H]2C1`, the “tumour outcome (control, treated, inhibition, significance)” value is reported as 13/27 (48%), 6/29 (21%), 56%, not calculated (Carcinogen: AZOXYMETHANE, 25843-45-2, Dose [Inhibitor]: 0, 0.02% IN DIET IN WK 1-3 OF STUDY FOLLOWED BY BASAL DIET FOR DURATION OF STUDY (STUDY DURATION: 1 YR), Route [Inhibitor]: ORAL, Species: RAT, Strain/Sex: F344/MALE, Target Tissue: Type of Lesion: LARGE INTESTINE: ADENOCARCINOMA, Dose [Carcinogen]: 15 MG/KG BW 1/WK IN WK 1 AND 2 OF STUDY, Promoter: NONE USED); 6/27 (22%), 8/29 (28%), -27%, not significant (Carcinogen: AZOXYMETHANE, 25843-45-2, Dose [Inhibitor]: 0, 0.02% IN DIET IN WK 1-3 OF STUDY FOLLOWED BY BASAL DIET FOR DURATION OF STUDY (STUDY DURATION: 1 YR), Route [Inhibitor]: ORAL, Species: RAT, Strain/Sex: F344/MALE, Target Tissue: Type of Lesion: LARGE INTESTINE: ADENOMA, Dose [Carcinogen]: 15 MG/KG BW 1/WK IN WK 1 AND 2 OF STUDY, Promoter: NONE USED); 6/27 (22%), 3/29 (10%), 55%, not calculated (Carcinogen: AZOXYMETHANE, 25843-45-2, Dose [Inhibitor]: 0, 0.02% IN DIET IN WK 1-3 OF STUDY FOLLOWED BY BASAL DIET FOR DURATION OF STUDY (STUDY DURATION: 1 YR), Route [Inhibitor]: ORAL, Species: RAT, Strain/Sex: F344/MALE, Target Tissue: Type of Lesion: SMALL INTESTINE: ADENOCARCINOMA, Dose [Carcinogen]: 15 MG/KG BW 1/WK IN WK 1 AND 2 OF STUDY, Promoter: NONE USED).
As to `CC(=O)Nc1nnc(S(N)(=O)=O)s1`, under “Carcinogen: N-BUTYL-N-(4-HYDROXYBUTYL)NITROSAMINE, 3817-11-6, Dose [Inhibitor]: 0.35% DIET DAILY FOR 34 WK STARTING AFTER CARCINOGEN TREATMENT (STUDY DURATION: 38 WK), Route [Inhibitor]: ORAL, Species: RAT, Strain/Sex: F344/MALE, Target Tissue: Type of Lesion: URINARY BLADDER: PAPILLOMA, Dose [Carcinogen]: 0.01% IN DRINKING WATER FOR 4 WK, Promoter: NONE USED”, the “tumour outcome (control, treated, inhibition, significance)” value was 33%, 15%, 55%, not significant.
Consider `CC1(C)CCC2(C(=O)OC3OC(CO)C(O)C(O)C3O)CCC3(CO)C(=CCC4C5(C)CC(O)C(O)C(C)(C(=O)OC6OC(CO)C(O)C(O)C6O)C5CCC43C)C2C1` (stereo not drawn), for which the “tumour outcome (control, treated, inhibition, significance)” value by setting is: (Carcinogen: BENZO[A]PYRENE, 50-32-8, Dose [Inhibitor]: 0, 12.85 MG/ML IN DRINKING WATER FOR 6 WK (STUDY DURATION: 9 WK), Route [Inhibitor]: ORAL, Species: MOUSE, Strain/Sex: NIGP(S)/FEMALE, Target Tissue: Type of Lesion: LUNG: ADENOMA, Dose [Carcinogen]: 0.5 MG INJECTED IN THE SCAPULAR REGION OF NEWBORN MICE ONCE, Promoter: NONE USED) 56%, 53%, 5%, not calculated; (Carcinogen: BENZO[A]PYRENE, 50-32-8, Dose [Inhibitor]: 0, 12.85 MG/ML IN DRINKING WATER FOR 6 WK (STUDY DURATION: 9 WK), Route [Inhibitor]: ORAL, Species: MOUSE, Strain/Sex: NIGP(S)/MALE, Target Tissue: Type of Lesion: LUNG: ADENOMA, Dose [Carcinogen]: 0.5 MG INJECTED IN THE SCAPULAR REGION OF NEWBORN MICE ONCE, Promoter: NONE USED) 38%, 37%, 3%, not calculated.
Consider `C[C@@]12C=Cc3occc3[C@H]1CC[C@@]13C[C@@H](CC[C@H]12)[C@@](O)(CO)C3`, for which the “tumour outcome (control, treated, inhibition, significance)” value reads like this: (Carcinogen: 7,12-DIMETHYLBENZ[A]ANTHRACENE, 57-97-6, Dose [Inhibitor]: 0, 0.2 G/KG OF DIET OF 50:50 MIXTURE OF KAHWEOL AND CAFESTOL FOR 14 WK BEGINNING 1 WK PRIOR TO CARCINOGEN TREATMENT (STU, Route [Inhibitor]: ORAL, Species: HAMSTER, Strain/Sex: SYRIAN/FEMALE, Target Tissue: Type of Lesion: BUCCAL POUCH: TUMOR, Dose [Carcinogen]: 0.5% SOLUTION IN MINERAL OIL PAINTED ON LEFT BUCCAL POUCH 3/WK FOR 13 WK, Promoter: NONE USED) 14/14 (100%), 14/14 (100%), 0%, not significant; (Carcinogen: 7,12-DIMETHYLBENZ[A]ANTHRACENE, 57-97-6, Dose [Inhibitor]: 0, 2 G/KG OF DIET OF 50:50 MIXTURE OF KAHWEOL AND CAFESTOL FOR 14 WK BEGINNING 1 WK PRIOR TO CARCINOGEN TREATMENT (STUDY, Route [Inhibitor]: ORAL, Species: HAMSTER, Strain/Sex: SYRIAN/FEMALE, Target Tissue: Type of Lesion: BUCCAL POUCH: TUMOR, Dose [Carcinogen]: 0.5% SOLUTION IN MINERAL OIL PAINTED ON LEFT BUCCAL POUCH 3/WK FOR 13 WK, Promoter: NONE USED) 14/14 (100%), 14/15 (93%), 7%, not significant.
